In brackets after ≈: the same amount, converted by molar mass.

The test system of test [1] is Zymoseptoria tritici. In words: Microtiter plate (MTP) fungal growth assay, optical density, Wadley analysis. Type of test: cell-based. Particulars: single active ingredient, OD 590 nm after 5 days at 19° C.
Test [2] has as its system Phytophthora infestans. In words: microbe, parasite or virus in culture. Type of test: cell-based.
For test [3], the system named is Venturia inaequalis. In words: Apple scab control on apple leaves (incidence), Colby analysis. To be noted: 27 days after application.
Procedure: Here, efficacy or percent inhibition is determined in %.
Efficacy of the fungicidal compositions is evaluated with reference to a scale of 0 to 100% in comparison with untreated control plots. 0 means no control and 100 means complete control of the target disease.
The experiments were conducted by applying commercially available formulations of Fluazinam and other mixture partners, alone or with their tank-mixed compositions. The compositions were diluted with water.
Each formulation with active ingredient is diluted with water and biological efficacy trials on target fungi are conducted.
Setting [4] is: Fluazinam 350 g/ha, Fluxapyroxad 75 g/ha, mixture 350 + 75 g/ha.

As to `Cc1ccc(C(=O)OCc2ccc(Oc3ccccc3)cc2)c(N)n1` [Aminopyrifen], the EC50 observed in test [1] was 0.2220 µg/mL (≈ 0.664 µM).
For `COc1ccnc(C(=O)N[C@@H](C)C(=O)O[C@@H](C)C(c2ccc(F)cc2)c2ccc(F)cc2)c1OC(C)=O` [Florylpicoxamid], the EC50 observed in test [1] came to 0.0022 µg/mL (≈ 0.00429 µM).
Consider `O=[N+]([O-])c1cc(C(F)(F)F)c(Cl)c([N+](=O)[O-])c1Nc1ncc(C(F)(F)F)cc1Cl` [Fluazinam], for which the EC50 in test [1] (Zymoseptoria tritici, 120 h, read-out: EC50 observed) is 0.257 µg/mL (≈ 0.552 µM); in test [2] (Phytophthora infestans, 120 h, read-out: EC50 observed), 0.528 µg/mL (≈ 1.14 µM). Further, the “Observed % control (O)” value in test [3] (setting [4]) was 30.50%.
Consider `Cn1cc(C(=O)Nc2ccccc2Oc2ccc(C(F)(F)F)cc2Cl)c(C(F)F)n1` [Flubeneteram], for which the EC50 observed in test [1] amounted to 0.1221 µg/mL (≈ 0.274 µM).
`Cn1cc(C(=O)Nc2ccccc2-c2cc(F)c(F)c(F)c2)c(C(F)F)n1` [Fluxapyroxad]: the “Observed % control (O)” value in test [3] (setting [4]) is on record as 27.50%; in test [3] (Fluxapyroxad 90 g/ha, mixture 350 + 90 g/ha) it was 43.80%.
With `Cn1nnnc1/C(=N\OCc1cccc(NC(=O)OC(C)(C)C)n1)c1ccccc1` [Picarbutrazox], the EC50 observed in test [2] (single active ingredient, OD 590 nm after 5 days at 19° C.) came out at 0.0026 µg/mL (≈ 0.00635 µM).
